Results published in patent publication US12448425B2, “Therapeutic peptides” (Board of Regents, The University of Texas System, priority 2019, dated 2025).

Tests used:
Bev-resistant RF24 cells = experiment: Cell death in bevacizumab-resistant RF24 cells (SYTOX-green flow cytometry); assay type: cell-based
Description: FIGS. 4A-D: BIDEN-AP-based agents inhibit microtubule formation and sensitizes resistant endothelial cells to anti-VEGF antibody. (FIG. 4A, FIG. 4B) Microtubule formation in RF24 cells treated with EFNB2-Fc (2 nM) or BIDEN-AP (15 μM) compared to untreated controls (CTL). Five images per well were taken at ×100 magnification. […] Representative plots from flow cytometry analysis with SYTOX-green are shown. […] Data are presented as mean±SD (n=6). *p<0.05, **p<0.01.
Given the important role of endothelium in adaptive changes with anti-angiogenic therapy (Bergers et al., 2008), we further tested the effects of BIDEN-AP in overcoming resistance to anti-VEGF therapy in RF24 cells. To do this, we first established a bevacizumab (Bev)-resistant RF24 cell line selected though continuous Bev treatment at low dose ([…]) for 2 weeks. The Bev-resistant RF24 cells were maintained at a Bev concentration of […]. Using flow cytometry with SYTOX-green staining, we quantified the live (SYTOX-negative) vs. dead (SYTOX-positive) populations after treatment with BIDEN-AP or CCPM-BIDEN-AP.

[1] = Particle size by transmission electron microscopy; assay type: physicochemical
Description: CCPM-BIDEN-AP conjugation. CCPM with amine functionalized surface was synthesized according to reported procedures (Koolpe et al., 2005). To introduce a maleimide group to the CCPM, an aliquot of N-(γ-maleimidobutyryloxy)-succinimide ester) (GMBS) in DMF ([…], 0.16 mmol) was added into the CCPM ([…], 2.6 nmol nanoparticles) in 1.2 mL of phosphate-buffered saline solution (PBS, pH 8). The mixture was stirred for 3 h at 37° C. The product was purified using a PD-10 column to remove unreacted GMBS. To introduce a sulfhydryl group to BIDEN-AP, the amino acid cysteine was conjugated to the N-terminal amine of BIDEN-AP. The resulting sulfhydryl-containing Cys-BIDEN-AP was mixed with 2 mL of a solution of CCPM-maleimide (0.16 mmol equivalent maleimide) in PBS with a 2:1 molar ratio of Cys-BIDEN-AP to maleimide groups (CCPM). […] The unreacted Cys-BIDEN-AP was quantified on an Agilent 1100 Series LC/MSD-TOF instrument equipped with a Vydac C18 column. The molar ratio of BIDEN-AP to CCPM was calculated on the basis of Cys-BIDEN-AP consumed (total Cys-BIDEN-AP minus remaining Cys-BIDEN-AP). The size of CCPM-BIDEN-AP was determined by transmission electron microscopy (TEM). […]

## CCPM-BIDEN-AP: nano-conjugate of Cys-BIDEN-AP on core-crosslinked polymeric micelles via maleimide (GMBS) (CTNYLFSPNGPIARAW; D-residues)
Bev-resistant RF24 cells
  sensitization of Bev-resistant cells to Bev treatment: re-sensitized these cells to Bev treatment
[1]
  mean diameter (TEM): 24±3 nm
